This is an account of results in patent US10202362B2, “Inhibitors of leukotriene A4 hydrolase” (Celtaxsys, Inc., priority 2016, dated 2019).

The target in assay [1] is recombinant human LTA4 hydrolase (Homo sapiens (Human), UniProt P09960). Description: LTA4 hydrolase homogeneous time resolved fluorescence (HTRF) assay. Format: biochemical. The conditions noted are these: inhibition of hydrolysis of LTA4 to LTB4. The method, then: Compounds of the invention were tested in the LTA4 hydrolase homogeneous time resolved fluorescence (HTRF) assay to determine their ability to inhibit the hydrolysis of LTA4 to LTB4. The assay analyzes the amount of LTB4 produced.
Chain of recombinant human LTA4 hydrolase (P09960 whole entry): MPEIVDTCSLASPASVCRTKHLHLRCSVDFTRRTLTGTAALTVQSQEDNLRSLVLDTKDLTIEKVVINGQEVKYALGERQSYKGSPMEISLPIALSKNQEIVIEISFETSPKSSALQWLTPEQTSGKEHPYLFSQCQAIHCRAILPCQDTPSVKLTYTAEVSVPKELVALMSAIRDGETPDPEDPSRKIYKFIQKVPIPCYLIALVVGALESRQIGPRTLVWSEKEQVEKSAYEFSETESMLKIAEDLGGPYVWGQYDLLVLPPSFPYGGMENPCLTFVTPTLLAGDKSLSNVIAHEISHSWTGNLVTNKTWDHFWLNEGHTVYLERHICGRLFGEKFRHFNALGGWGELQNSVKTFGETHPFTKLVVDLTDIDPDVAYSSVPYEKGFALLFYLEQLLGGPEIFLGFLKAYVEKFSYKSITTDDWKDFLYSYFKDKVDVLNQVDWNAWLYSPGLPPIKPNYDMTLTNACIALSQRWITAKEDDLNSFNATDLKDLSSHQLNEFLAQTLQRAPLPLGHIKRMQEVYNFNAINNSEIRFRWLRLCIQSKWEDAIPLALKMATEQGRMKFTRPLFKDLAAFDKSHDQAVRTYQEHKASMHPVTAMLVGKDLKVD
LTA4 HTRF assay is a two-step assay involving enzymatic conversion of LTA4 to LTB4, and subsequent quantification of LTB4, product with HTRF assay.
The enzymatic conversion of LTA4 to LTB4 was performed in 384-well plates at ambient temperature in a reaction mixture containing 50 mM HEPES (pH 7.5), 0.5% BSA (fatty acid free), 18 nM recombinant human LTA4 hydrolase, 150 nM LTA4, 1% DMSO in the absence or presence of a compound of the invention. […]
LTB4 formed was quantified with the HTRF assay in which free LTB4 competes with LTB4-XL665 conjugate (acceptor) for anti-LTB4 monoclonal antibody labeled with Europium cryptate (donor), thereby inhibiting the fluorescence energy transfer.
The LTB4 HTRF 384-well assay was carried out by incubating LTB4 samples or standards with LTB4-XL665 conjugate (7.5 ng/well) and anti-LTB4 monoclonal antibody-Europium cryptate conjugate (0.5 ng/well) in 50 mM phosphate, 0.4 M KF and 0.1% casein, buffer (pH 7.0) for two hours at ambient temperature. Plates were read in a RubyStar plate reader (BmG Labtechnologies Inc., NC) simultaneously at 620 nm and 665 nm to obtain signal ratios of 665 nm/620 nm. […]
(In general: Time-resolved FRET reads energy transfer from a long-lived donor to a nearby acceptor.)

Assay [2] deals with LTA4 hydrolase peptidase activity (Homo sapiens (Human), UniProt P09960). Put plainly: Peptidase assay (hydrolysis of L-alanine-p-nitroanilide). In kind it is biochemical. As to conditions: L-alanine-p-nitroanilide substrate. The method, then:
Inhibition of peptidase activity was measured for the compounds of the invention by using methods similar to those described in Kull, F. et al., The Journal of Biological Chemistry 1999, 274 (49): 34683-34690.
In brief, the enzyme (29 nM) was incubated with L-alanine-p-nitroanilide (1 mM) in 50 mM HEPES (pH 7.5), 100 mM KCL, 1% DMSO in the absence or presence of a compound of the invention for 1 hour at ambient temperature. Reaction was terminated by addition of acetic acid (1%). Formation of colored nitro-aniline was measured by the increase in absorbance at 405 nm in a Victor 2 plate reader (Wallac). Spontaneous hydrolysis of the substrate was corrected for by subtracting the absorbance of control incubations without enzyme.

Assay [3] relates to LTB4 production in human whole blood. Put plainly: Whole blood assay (LTB4 release upon calcium ionophore, ELISA), human blood. In kind it is cell-based. The conditions noted are these: production of LTB4 in whole blood. The method, then:
Compounds of the invention were tested for their ability as inhibitors of LTA4 hydrolase in a whole blood assay using human, mouse, rat or dog whole blood in a manner similar to that described in Penning, T. D. et al., J. Med. Chem. (2000), 43(4): 721-735. In this assay, compounds were tested for their ability to inhibit LTB4 release upon stimulation with calcium ionophore. The LTB4 levels in supernatants were measured by ELISA.
(An ELISA detects its analyte on a solid surface through an enzyme-linked reagent.)

Chain of LTA4 hydrolase peptidase activity (P09960 whole entry): as above

As for `O=C(O)C1CCN(C(=O)CN2CCC(Nc3ccc(Oc4ccc(-c5ncco5)cc4)cc3)CC2)CC1` [Example 1, 1-(2-(4-((4-(4-(oxazol-2-yl)phenoxy)phenyl)amino)piperidin-1-yl)acetyl)piperidine-4-carboxylic acid], the IC50 (as a rule, the concentration at which inhibition is half-maximal) in assay [1] came to 0.0021 µM; in assay [2] it was 0.0071 µM; in assay [3] it was 0.062 µM.

Take `O=C(O)c1ccc(CN2CCCC(CNc3ccc(Oc4ccc(Cl)cc4)cc3)C2)cc1` (stereo not drawn) [Example 3, 4-((3-(((4-(4-chlorophenoxy)phenyl)amino)methyl)piperidin-1-yl)methyl)benzoic acid]: the IC50 in assay [1] was determined as 0.0018 µM; in assay [2], 0.022 µM; in assay [3], 0.1 µM.
